Several values for one entry are separate records, joined by “and”; a condition that tells them apart may be missing. Identical values can stand only once. Like-named read-outs stand apart in the source and are kept apart here.
Legend:
[1] = molecular target: Myeloid Cell Leukemia 1 (Mcl-1) (Homo sapiens, UniProt Q07820); assay: biochemical; type: binding; conditions: HTRF Ki (nM)
MOLP8 cell line = assay: MOLP8 CellEvent Caspase-3/7 Green live-cell IncuCyte apoptosis assay; type: cell-based, human; conditions: MOLP8 cells, averaged values
Description: (§1) MCL-1 is a regulator of apoptosis and is highly over-expressed in tumor cells that escape cell death. The assay evaluates the cellular potency of small-molecule compounds targeting regulators of the apoptosis pathway, primarily MCL-1, Bfl-1, Bcl-2, and other proteins of the Bcl-2 family. Protein-protein inhibitors disrupting the interaction of anti-apoptotic regulators with BH3-domain proteins initiate apoptosis.
Activation of the apoptotic pathway was measured using the CellEvent™ Caspase-3/7 Green ReadyProbes™ Reagent (Thermo Fisher C10423, C10723). This assay produces a green fluorescent stain in cells that enter the apoptosis pathway. CellEvent® Caspase-3/7 Green reagent is a four amino acid peptide (DEVD) conjugated to a nucleic acid-binding dye that is non-fluorescent when not bound to DNA. The CellEvent® Caspase-3/7 Green reagent is intrinsically non-fluorescent, as the DEVD peptide inhibits binding of the dye to DNA. Upon activation of caspase-3/7 in apoptotic cells, the DEVD peptide is cleaved and the free dye can bind DNA, generating a bright green fluorescence. The activation of Caspase-3 and Caspase-7 is downstream of inhibition of MCL-1 or other apoptosis inhibiting proteins in cell lines that are dependent on them.
The live-cell readout on the IncuCyte permits tracking over time of the Caspase activation. […] The IncuCyte readout also allows one to normalize for cell number, as the suspension cells are hard to distribute evenly.
Signals were measured every 2 h for a duration of 22 h. The ratio of the Caspase mask to the Confluence mask, per image, as raw data, was calculated and the kinetic trace for every well was exported to Genedata Screener for analysis.
In Genedata Screener values for 6 h, 12 h, and 22 h from the kinetic traces were extracted. The values were normalized against negative controls (untreated cells). A standard dose-response analysis was performed on the normalized data.
The following data was reported at each of the following three aforementioned time points: (a) The dose-response curve, (b) The qAC50 and qAC50 Mode, and (c) Max Activity.
Cells were maintained in culture medium containing 10% Heat Inactivated (HI) FBS, 2 mM L-Glutamine and 50 μg/mL Gentamycin phenol red free RPMI-1640. Cells were split at 0.4 million/mL twice a week.
On Day 1, plates containing individual wells with test compounds at 10 mM concentration, 150 nL per well. The final concentrations range from […] compound (and no compound control) and compounds were thawed at room temperature for 1 hour. 25 μl of prewarmed medium was added into each well by multidrop (column 1, 3-22, 24), followed by addition of DMSO control (0.6% DMSO) in column 2. The plate was sealed using Breathe-Easy® sealing membrane and shaken for 30 min at room temperature to dissolve the test compound(s) in medium. The plate was then kept in the incubator for 1 hour at 37° C., 5% CO2.
MOLP8 cells in medium at […] (20000/50 μl final in assay) were prepared with CellEvent™ Caspase-3/7 Green Detection Reagent at 4 μM (2 μM final in assay). Once prepared, the cells were added to the test compound plate in an amount of 20000 and the plate was immediately placed in the IncuCyte and imaging started using following settings: 10× objective, 2 s exposure time in green channel, interval of 2 h, acquisition stopped after 22 h.
For analysis in IncuCyte, a Basic Analysis protocol was defined to calculate the “confluence” and “caspase” areas from the “Phase” and “green” images, respectively, as follows: (a) Confluence: Segmentation Adjustment 1, Hole Fill 0, Adjust Size −2, No filters (b) Caspase: Top-Hat segmentation, Radius 10, Threshold 0.3 GCU, Edge Split On with sensitivity 0, Hole Fill 0, Adjust Size 1, and filter on a minimum Area of 20 μm^2. The analyzer is trained on a sufficient number of positive and negative control wells, as well as compound treated wells, verifying that the “confluence” layer detects both live and dead (condensed) cells. […]

[2] = system: MOLP-8 human multiple myeloma cell line; assay: MOLP8 Caspase-Glo 3/7 luminescent assay; type: cell-based; conditions: averaged over all runs on all batches
Source text: as §1
The Caspase-Glo® 3/7 Assay is a luminescent assay that measures caspase-3 and -7 activities in purified enzyme preparations or cultures of adherent or suspension cells. The assay provides a proluminescent caspase-3/7 substrate, which contains the tetrapeptide sequence DEVD. This substrate is cleaved to release aminoluciferin, a substrate of luciferase used in the production of light. Addition of the single Caspase-Glo® 3/7 Reagent in an “add-mix-measure” format results in cell lysis, followed by caspase cleavage of the substrate and generation of a “glow-type” luminescent signal.
This assay uses the MOLP-8 human multiple myeloma cell line, which is sensitive to MCL-1 inhibition.
Cell cultures were maintained between 0.2 and 2.0×10^6 cells/mL. The cells were harvested by collection in 50 mL conical tubes. The cells were then pelleted at 500 g for 5 mins before removing supernatant and resuspension in fresh pre-warmed culture medium. The cells were counted and diluted as needed.
The assay reagent was prepared by transferring the buffer solution to the substrate vial and mixing. The solution may be stored for up to 1 week at 4° C. with negligible loss of signal.
Compounds were delivered in assay-ready plates (Proxiplate) and stored at −20° C.
Assays always include 1 reference compound plate containing reference compounds. The plates were spotted with 40 nL of compounds (0.5% DMSO final in cells; serial dilution; 30 μM highest conc. 1/3 dilution, 10 doses, duplicates). The compounds were used at room temperature and 4 μL of pre-warmed media was added to all wells except column 2 and 23. The negative control was prepared by adding 1% DMSO in media. The positive control was prepared by adding the appropriate positive control compound in final concentration of 60 μM in media. The plate was prepared by adding 4 μL negative control to column 23, 4 μL positive control to column 2 and 4 μL cell suspension to all wells in the plate. The plate with cells was then incubated at 37° C. for 2 hours. The assay signal reagent is the Caspase-Glo solution described above, and 8 μL was added to all wells. The plates were then sealed and measured after 30 minutes.
The activity of a test compound was calculated as percent change in apoptosis induction as follows: […]

[3] = read-out: MOLP8 Caspase 3/7 AC50 at 6 h, 6 h
[4] = read-out: MOLP8 Caspase 3/7 AC50 at 12 h, 12 h
[5] = read-out: MOLP8 Caspase 3/7 AC50 at 22 h, 22 h
[6] = MOLP8 cells, 2 hours incubation, read-out: MOLP8 Caspase-Glo AC50
[7] = read-out: MOLP8 Caspase-Glo AC50, MOLP8 cells, 2 hours incubation

Chain of Myeloid Cell Leukemia 1 (Mcl-1) (Q07820 whole entry): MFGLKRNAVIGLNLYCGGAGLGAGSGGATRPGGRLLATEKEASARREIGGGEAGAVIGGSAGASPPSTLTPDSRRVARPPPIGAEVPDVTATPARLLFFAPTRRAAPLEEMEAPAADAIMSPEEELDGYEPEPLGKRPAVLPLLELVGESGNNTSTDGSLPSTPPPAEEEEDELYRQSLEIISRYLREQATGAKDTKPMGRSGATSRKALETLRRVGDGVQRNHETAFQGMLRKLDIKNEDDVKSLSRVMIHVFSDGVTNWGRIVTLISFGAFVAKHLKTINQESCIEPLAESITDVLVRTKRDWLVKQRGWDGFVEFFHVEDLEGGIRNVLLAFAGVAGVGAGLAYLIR

SMILES | Ki [1] | AC50 (MOLP8 cell line; [3]) [nM] | AC50 (MOLP8 cell line; [4]) [nM] | AC50 (MOLP8 cell line; [5]) [nM] | AC50 [2, 6] [nM] | AC50 [2, 7] [nM] | AC50 ([2]; Homo sapiens, MOLP-8, 2 h, read-out: MOLP8 Caspase-Glo AC50 (nM), MOLP8 cells, 2 hours incubation) [nM]
Cc1c2c(nn1CCN1CCOCC1)CN(C)Cc1cc(n(C)n1)CSc1cc(c3ccccc3c1)OCCCc1c(C(=O)O)n(C)c3c-2c(Cl)ccc13 (single isomer, unassigned) [Compound 13] | 0.05 nM and 0.04 nM | 150 | 150 | 170 | 75 | – | –
Cc1c2c(nn1CCN1CCOCC1)CN(C)Cc1cc(n(C)n1)CSc1cc(c3ccccc3c1)OCCCc1c(C(=O)O)n(C)c3c-2c(Cl)ccc13 (single isomer, unassigned) [Compound 14] | 2.85 nM and 2.53 nM | 7670 | 7160 | 7330 | 3680 | – | –
Cc1nn(CC2CCOCC2)c2c1-c1c(Cl)ccc3c(c(C(=O)O)n(C)c13)CCCOc1cc(cc3ccccc13)SCc1cc(nn1C)CN(C)C2 (single isomer, unassigned) [Compound 15] | 0.09 nM and 0.03 nM | 230 | 230 | 190 | 67 | – | –
Cc1c2c(nn1CC1CCOCC1)CN(C)Cc1cc(n(C)n1)CSc1cc(c3ccccc3c1)OCCCc1c(C(=O)O)n(C)c3c-2c(Cl)ccc13 (single isomer, unassigned) [Compound 16] | 0.06 nM and 0.05 nM | 150 | 140 | 150 | 49 | – | –
Cc1c2c(nn1CC1CCOCC1)CN(C)Cc1cc(n(C)n1)CSc1cc(c3ccccc3c1)OCCCc1c(C(=O)O)n(C)c3c-2c(Cl)ccc13 (single isomer, unassigned) [Compound 17] | 0.41 nM and 0.66 nM | 1230 | 1240 | 1220 | 564 | – | –
Cc1nn(CC2CCOCC2)c2c1-c1c(Cl)ccc3c(c(C(=O)O)n(C)c13)CCCOc1cc(cc3ccccc13)SCc1cc(nn1C)CN(C)C2 (single isomer, unassigned) [Compound 18] | 2.46 nM and 3.31 nM | 8320 | 8410 | 7850 | 3760 | – | –
Cc1nn(CCN(C)C)c2c1-c1c(Cl)ccc3c(c(C(=O)O)n(C)c13)CCCOc1cc(cc3ccccc13)SCc1cc(nn1C)CN(C)C2 (single isomer, unassigned) [Compound 19] | 0.08 nM and 0.18 nM | 1090 | 990 | 990 | 233 | – | –
Cc1c2c(nn1CCN(C)C)CN(C)Cc1cc(n(C)n1)CSc1cc(c3ccccc3c1)OCCCc1c(C(=O)O)n(C)c3c-2c(Cl)ccc13 (single isomer, unassigned) [Compound 20] | 0.06 nM and 0.03 nM | 290 | 320 | 330 | 83 | – | –
Cc1c2c(nn1CCN(C)C)CN(C)Cc1cc(n(C)n1)CSc1cc(c3ccccc3c1)OCCCc1c(C(=O)O)n(C)c3c-2c(Cl)ccc13 (single isomer, unassigned) [Compound 21] | 0.49 nM and 0.31 nM | 3160 | 2960 | 3090 | 1600 | – | –
Cc1nn(CCN(C)C)c2c1-c1c(Cl)ccc3c(c(C(=O)O)n(C)c13)CCCOc1cc(cc3ccccc13)SCc1cc(nn1C)CN(C)C2 (single isomer, unassigned) [Compound 22] | 3.73 nM and 3.07 nM | ~17400 | ~17000 | ~17000 | 14500 | – | –
Cc1[nH]nc2c1-c1c(Cl)ccc3c(c(C(=O)O)n(C)c13)CCCOc1cc(cc3ccccc13)SCc1cc(nn1C)CN(C)C2 (single isomer, unassigned) [Compound 23] | 0.07 nM and 0.03 nM | 450 | 450 | 420 | – | 215 | –
Cc1[nH]nc2c1-c1c(Cl)ccc3c(c(C(=O)O)n(C)c13)CCCOc1cc(cc3ccccc13)SCc1cc(nn1C)CN(C)C2 (single isomer, unassigned) [Compound 24] | 1.2 nM and 1.87 nM | ~10500 | 12000 | 11500 | – | 8160 | –
COCCn1nc(C)c2c1CN(C)Cc1cc(n(C)n1)CSc1cc(c3ccccc3c1)OCCCc1c(C(=O)O)n(C)c3c-2c(Cl)ccc13 (single isomer, unassigned) [Compound 26] | 4.14 nM and 5.54 nM | 8290 | 7960 | 8610 | – | – | 4330
CCn1nc2cc1CSc1cc(c3ccccc3c1)OCCCc1c(C(=O)O)n(C)c3c(c(Cl)ccc13)-c1c(nn(C)c1C)CSC2 (single isomer, unassigned) [Compound 43] | 0.04 nM | – | – | – | – | 63 | –
CCn1nc2cc1CSc1cc(c3ccccc3c1)OCCCc1c(C(=O)O)n(C)c3c(c(Cl)ccc13)-c1c(nn(C)c1C)CSC2 (single isomer, unassigned) [Compound 44] | 4.06 nM | – | – | – | – | 3560 | –

Source: patent US20230021562A1, “[…] D[…]-1 INHIBITORS” (priority 2019, published 2023)
